{"source": "ChEMBL document CHEMBL1127992", "about": "“Novel conformationally restricted aromatic piperidines as selective sigma receptor ligands” (Bioorg Med Chem Lett, 1994)", "key": {"[1]": {"target": "D(2) dopamine receptor (Homo sapiens, UniProt P14416)", "sequence (P14416 whole entry)": "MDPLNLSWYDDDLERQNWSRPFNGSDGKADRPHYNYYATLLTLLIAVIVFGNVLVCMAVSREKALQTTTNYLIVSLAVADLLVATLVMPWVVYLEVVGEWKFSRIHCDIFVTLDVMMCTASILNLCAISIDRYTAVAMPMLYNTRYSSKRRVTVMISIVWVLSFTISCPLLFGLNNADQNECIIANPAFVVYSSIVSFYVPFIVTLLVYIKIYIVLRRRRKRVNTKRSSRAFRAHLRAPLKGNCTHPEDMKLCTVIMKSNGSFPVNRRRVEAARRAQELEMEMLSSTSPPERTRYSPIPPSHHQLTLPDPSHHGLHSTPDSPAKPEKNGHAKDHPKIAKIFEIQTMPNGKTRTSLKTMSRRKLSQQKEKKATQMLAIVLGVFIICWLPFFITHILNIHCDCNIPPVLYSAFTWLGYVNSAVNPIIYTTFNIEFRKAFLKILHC", "experiment": "Displacement of [3H]-spiperone from dopamine D2 receptor"}, "[2]": {"target": "Serotonin 2 (5-HT2) receptor (Homo sapiens, UniProt P41595+P28223+P28335)", "experiment": "Displacement of [3H]ketanserin from 5-hydroxytryptamine 2 receptor", "assay_type": "protein assay"}}, "note": "pIC50: −log10 of the molar value."}
{"compound": "CN(C/C=C/c1ccccc1)C1CCN(Cc2ccccc2)CC1.O=C(O)/C=C/C(=O)O", "values": [{"measurement": "pIC50", "setting": "[1]", "value": "< 5.00"}, {"measurement": "Ki", "setting": "[2]", "value": 0.84, "unit": "µM"}]}
{"compound": "C(=C\\c1ccccc1)/CNC1CCN(Cc2ccccc2)CC1.O=C(O)/C=C/C(=O)O", "values": [{"measurement": "pIC50", "setting": "[1]", "value": "< 5.00"}, {"measurement": "Ki", "setting": "[2]", "value": 4.6, "unit": "µM"}]}
{"compound": "CN(C(=O)C#Cc1ccccc1)C1CCN(Cc2ccccc2)CC1.O=C(O)/C=C/C(=O)O", "values": [{"measurement": "pIC50", "setting": "[1]", "value": 5.31}, {"measurement": "Ki", "setting": "[2]", "value": 1.7, "unit": "µM"}]}
{"compound": "O=C(/C=C/c1ccccc1)NC1CCN(Cc2ccccc2)CC1.O=C(O)/C=C/C(=O)O", "values": [{"measurement": "pIC50", "setting": "[1]", "value": 5.33}, {"measurement": "Ki", "setting": "[2]", "value": 0.1, "unit": "µM"}]}
{"compound": "CN(C(=O)/C=C/c1ccccc1)C1CCN(Cc2ccccc2)CC1.O=C(O)/C=C/C(=O)O", "values": [{"measurement": "pIC50", "setting": "[1]", "value": 5.15}, {"measurement": "Ki", "setting": "[2]", "value": 1.5, "unit": "µM"}]}
{"compound": "CN(CC#Cc1ccccc1)C1CCN(Cc2ccccc2)CC1.O=C(O)/C=C/C(=O)O", "values": [{"measurement": "pIC50", "setting": "[1]", "value": 5.39}, {"measurement": "Ki", "setting": "[2]", "value": 0.32, "unit": "µM"}]}
{"compound": "C(=C\\c1ccccc1)/CN(C/C=C/c1ccccc1)C1CCN(Cc2ccccc2)CC1.O=C(O)/C=C/C(=O)O", "values": [{"measurement": "pIC50", "setting": "[1]", "value": "< 5.00"}, {"measurement": "Ki", "setting": "[2]", "value": 0.55, "unit": "µM"}]}
{"compound": "C(#Cc1ccccc1)CN(c1ccccc1)C1CCN(Cc2ccccc2)CC1.O=C(O)/C=C/C(=O)O", "values": [{"measurement": "pIC50", "setting": "[1]", "value": 6.05}, {"measurement": "Ki", "setting": "[2]", "value": 0.28, "unit": "µM"}]}
{"compound": "C(=C\\c1ccccc1)/CN(c1ccccc1)C1CCN(Cc2ccccc2)CC1.O=C(O)/C=C/C(=O)O", "values": [{"measurement": "pIC50", "setting": "[1]", "value": "< 5.00"}, {"measurement": "Ki", "setting": "[2]", "value": "> 10", "unit": "µM"}]}
{"compound": "O=C(C#Cc1ccccc1)NC1CCN(Cc2ccccc2)CC1.O=C(O)/C=C/C(=O)O", "values": [{"measurement": "pIC50", "setting": "[1]", "value": 5.60}, {"measurement": "Ki", "setting": "[2]", "value": 0.28, "unit": "µM"}]}
{"compound": "C(#Cc1ccccc1)CNC1CCN(Cc2ccccc2)CC1.O=C(O)/C=C/C(=O)O", "values": [{"measurement": "pIC50", "setting": "[1]", "value": "< 5.00"}, {"measurement": "Ki", "setting": "[2]", "value": 3.3, "unit": "µM"}]}
